{
  "source": "the supplement of paper PMC10307832",
  "experiment_in_all_cases": "relative viability (nuclei count vs DMSO), 5 days (fraction); higher = more cells survive",
  "key": {"SK-LU-1": {"test_system": "SK-LU-1", "outline": "(§1)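 Relative viability divides the nuclei count in treated wells by that in vehicle wells. Lung cancer cell lines were seeded in 1536-well plates, dosed by pin tool the next day, and fixed and stained after 5 days in one step with final 0.05% Triton X-100, 1% formaldehyde and 1 ug/ml Hoechst. Dosing was a single drug or a fixed anchor-drug dose plus five library-drug doses (not always all listed) in √10 steps, and values are medians of duplicate plates imaged at 4×.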"}, "NCI-H1651": {"test_system": "NCI-H1651", "outline": "as §1"}, "LXF-289": {"test_system": "LXF-289", "outline": "as §1"}, "COR-L 105": {"test_system": "COR-L 105", "outline": "as §1"}, "NCI-H2347": {"test_system": "NCI-H2347", "outline": "as §1"}, "SK-MES-1": {"test_system": "SK-MES-1", "outline": "as §1"}, "LC-2-ad": {"test_system": "LC-2-ad", "outline": "as §1"}, "EMC-BAC-2": {"test_system": "EMC-BAC-2", "outline": "as §1"}, "LK-2": {"test_system": "LK-2", "outline": "as §1"}, "EKVX": {"test_system": "EKVX", "outline": "as §1"}, "H3255": {"test_system": "H3255", "outline": "as §1"}, "PC-3 [JPC-3]": {"test_system": "PC-3 [JPC-3]", "outline": "as §1"}, "NCI-H2085": {"test_system": "NCI-H2085", "outline": "as §1"}, "NCI-H1915": {"test_system": "NCI-H1915", "outline": "as §1"}, "NCI-H1437": {"test_system": "NCI-H1437", "outline": "as §1"}, "NCI-H661": {"test_system": "NCI-H661", "outline": "as §1"}, "NCI-H2087": {"test_system": "NCI-H2087", "outline": "as §1"}, "NCI-H2228": {"test_system": "NCI-H2228", "outline": "as §1"}, "CAL-12T": {"test_system": "CAL-12T", "outline": "as §1"}, "NCI-H1755": {"test_system": "NCI-H1755", "outline": "as §1"}, "NCI-H1944": {"test_system": "NCI-H1944", "outline": "as §1"}},
  "data": [
    {"smiles": "CCCCCCCCCCCC1=C(O)C(=O)C=C(O)C1=O", "note": "[Embelin] + C[C@@H](Oc1cc(-c2cnn(C3CCNCC3)c2)cnc1N)c1c(Cl)ccc(F)c1Cl [Crizotinib] (partner 1 µM)", "values": [
      {"measurement": "relative viability", "setting": "SK-LU-1; first compound 0.08 µM", "result": 1.08},
      {"measurement": "relative viability", "setting": "SK-LU-1; first compound 0.8 µM", "result": 1.06},
      {"measurement": "relative viability", "setting": "SK-LU-1; first compound 2.53 µM", "result": 0.941},
      {"measurement": "relative viability", "setting": "SK-LU-1; first compound 8 µM", "result": 0.922},
      {"measurement": "relative viability", "setting": "NCI-H1651; first compound 0.08 µM", "result": 0.855},
      {"measurement": "relative viability", "setting": "NCI-H1651; first compound 0.8 µM", "result": 0.843},
      {"measurement": "relative viability", "setting": "NCI-H1651; first compound 2.53 µM", "result": 0.988},
      {"measurement": "relative viability", "setting": "NCI-H1651; first compound 8 µM", "result": 0.837},
      {"measurement": "relative viability", "setting": "LXF-289; first compound 0.08 µM", "result": 0.835},
      {"measurement": "relative viability", "setting": "LXF-289; first compound 0.8 µM", "result": 0.818},
      {"measurement": "relative viability", "setting": "LXF-289; first compound 2.53 µM", "result": 0.884},
      {"measurement": "relative viability", "setting": "LXF-289; first compound 8 µM", "result": 0.896},
      {"measurement": "relative viability", "setting": "COR-L 105; first compound 0.08 µM", "result": 0.727},
      {"measurement": "relative viability", "setting": "COR-L 105; first compound 0.8 µM", "result": 0.932},
      {"measurement": "relative viability", "setting": "COR-L 105; first compound 2.53 µM", "result": 0.875},
      {"measurement": "relative viability", "setting": "COR-L 105; first compound 8 µM", "result": 1.04},
      {"measurement": "relative viability", "setting": "NCI-H2347; first compound 0.08 µM", "result": 0.784},
      {"measurement": "relative viability", "setting": "NCI-H2347; first compound 0.8 µM", "result": 0.868},
      {"measurement": "relative viability", "setting": "NCI-H2347; first compound 2.53 µM", "result": 0.778},
      {"measurement": "relative viability", "setting": "NCI-H2347; first compound 8 µM", "result": 0.622},
      {"measurement": "relative viability", "setting": "SK-MES-1; first compound 0.08 µM", "result": 1.01},
      {"measurement": "relative viability", "setting": "SK-MES-1; first compound 0.8 µM", "result": 1.1},
      {"measurement": "relative viability", "setting": "SK-MES-1; first compound 2.53 µM", "result": 0.952},
      {"measurement": "relative viability", "setting": "SK-MES-1; first compound 8 µM", "result": 1.11},
      {"measurement": "relative viability", "setting": "LC-2-ad; first compound 0.08 µM", "result": 0.451},
      {"measurement": "relative viability", "setting": "LC-2-ad; first compound 0.8 µM", "result": 0.564},
      {"measurement": "relative viability", "setting": "LC-2-ad; first compound 2.53 µM", "result": 0.472},
      {"measurement": "relative viability", "setting": "LC-2-ad; first compound 8 µM", "result": 0.427},
      {"measurement": "relative viability", "setting": "EMC-BAC-2; first compound 0.08 µM", "result": 0.747},
      {"measurement": "relative viability", "setting": "EMC-BAC-2; first compound 0.8 µM", "result": 0.831},
      {"measurement": "relative viability", "setting": "EMC-BAC-2; first compound 2.53 µM", "result": 0.87},
      {"measurement": "relative viability", "setting": "EMC-BAC-2; first compound 8 µM", "result": 0.764},
      {"measurement": "relative viability", "setting": "LK-2; first compound 0.08 µM", "result": 0.227},
      {"measurement": "relative viability", "setting": "LK-2; first compound 0.8 µM", "result": 0.316},
      {"measurement": "relative viability", "setting": "LK-2; first compound 2.53 µM", "result": 0.229},
      {"measurement": "relative viability", "setting": "LK-2; first compound 8 µM", "result": 0.208},
      {"measurement": "relative viability", "setting": "EKVX; first compound 0.08 µM", "result": 0.78},
      {"measurement": "relative viability", "setting": "EKVX; first compound 0.8 µM", "result": 1.05},
      {"measurement": "relative viability", "setting": "EKVX; first compound 2.53 µM", "result": 1.07},
      {"measurement": "relative viability", "setting": "EKVX; first compound 8 µM", "result": 1.07},
      {"measurement": "relative viability", "setting": "H3255; first compound 0.08 µM", "result": 0.86},
      {"measurement": "relative viability", "setting": "H3255; first compound 0.8 µM", "result": 0.979},
      {"measurement": "relative viability", "setting": "H3255; first compound 2.53 µM", "result": 0.875},
      {"measurement": "relative viability", "setting": "H3255; first compound 8 µM", "result": 1.03},
      {"measurement": "relative viability", "setting": "PC-3 [JPC-3]; first compound 0.08 µM", "result": 0.948},
      {"measurement": "relative viability", "setting": "PC-3 [JPC-3]; first compound 0.8 µM", "result": 1.01},
      {"measurement": "relative viability", "setting": "PC-3 [JPC-3]; first compound 2.53 µM", "result": 1.06},
      {"measurement": "relative viability", "setting": "PC-3 [JPC-3]; first compound 8 µM", "result": 0.987},
      {"measurement": "relative viability", "setting": "NCI-H2085; first compound 0.08 µM", "result": 0.666},
      {"measurement": "relative viability", "setting": "NCI-H2085; first compound 0.8 µM", "result": 0.948},
      {"measurement": "relative viability", "setting": "NCI-H2085; first compound 2.53 µM", "result": 0.925},
      {"measurement": "relative viability", "setting": "NCI-H2085; first compound 8 µM", "result": 0.835},
      {"measurement": "relative viability", "setting": "NCI-H1915; first compound 0.08 µM", "result": 0.988},
      {"measurement": "relative viability", "setting": "NCI-H1915; first compound 0.8 µM", "result": 1.03},
      {"measurement": "relative viability", "setting": "NCI-H1915; first compound 2.53 µM", "result": 0.993},
      {"measurement": "relative viability", "setting": "NCI-H1915; first compound 8 µM", "result": 0.97},
      {"measurement": "relative viability", "setting": "NCI-H1437; first compound 0.08 µM", "result": 0.988},
      {"measurement": "relative viability", "setting": "NCI-H1437; first compound 0.8 µM", "result": 0.898},
      {"measurement": "relative viability", "setting": "NCI-H1437; first compound 2.53 µM", "result": 1.01},
      {"measurement": "relative viability", "setting": "NCI-H1437; first compound 8 µM", "result": 0.452},
      {"measurement": "relative viability", "setting": "NCI-H661; first compound 0.08 µM", "result": 1.09},
      {"measurement": "relative viability", "setting": "NCI-H661; first compound 0.8 µM", "result": 1.09},
      {"measurement": "relative viability", "setting": "NCI-H661; first compound 2.53 µM", "result": 0.846},
      {"measurement": "relative viability", "setting": "NCI-H661; first compound 8 µM", "result": 0.997},
      {"measurement": "relative viability", "setting": "NCI-H2087; first compound 0.08 µM", "result": 0.886},
      {"measurement": "relative viability", "setting": "NCI-H2087; first compound 0.8 µM", "result": 0.899},
      {"measurement": "relative viability", "setting": "NCI-H2087; first compound 2.53 µM", "result": 0.766},
      {"measurement": "relative viability", "setting": "NCI-H2087; first compound 8 µM", "result": 0.937},
      {"measurement": "relative viability", "setting": "NCI-H2228; first compound 0.08 µM", "result": 0.437},
      {"measurement": "relative viability", "setting": "NCI-H2228; first compound 0.8 µM", "result": 0.579},
      {"measurement": "relative viability", "setting": "NCI-H2228; first compound 2.53 µM", "result": 0.431},
      {"measurement": "relative viability", "setting": "NCI-H2228; first compound 8 µM", "result": 0.426},
      {"measurement": "relative viability", "setting": "CAL-12T; first compound 0.08 µM", "result": 0.615},
      {"measurement": "relative viability", "setting": "CAL-12T; first compound 0.8 µM", "result": 0.785},
      {"measurement": "relative viability", "setting": "CAL-12T; first compound 2.53 µM", "result": 0.724},
      {"measurement": "relative viability", "setting": "CAL-12T; first compound 8 µM", "result": 0.801},
      {"measurement": "relative viability", "setting": "NCI-H1755; first compound 0.08 µM", "result": 0.829},
      {"measurement": "relative viability", "setting": "NCI-H1755; first compound 0.8 µM", "result": 0.877},
      {"measurement": "relative viability", "setting": "NCI-H1755; first compound 2.53 µM", "result": 0.921},
      {"measurement": "relative viability", "setting": "NCI-H1755; first compound 8 µM", "result": 0.871},
      {"measurement": "relative viability", "setting": "NCI-H1944; first compound 0.08 µM", "result": 1.19},
      {"measurement": "relative viability", "setting": "NCI-H1944; first compound 0.8 µM", "result": 1.21},
      {"measurement": "relative viability", "setting": "NCI-H1944; first compound 2.53 µM", "result": 1.2},
      {"measurement": "relative viability", "setting": "NCI-H1944; first compound 8 µM", "result": 1.17}
    ]}
  ]
}
